{"source": "patent US7070816B2", "about": "“Methods for treating prostatic intraepithelial neoplasia with herbal compositions” (New Chapter, Inc., priority 2003, dated 2006)", "origin": "cited, not measured here", "key": {"5-lipoxygenase": {"biological_target": "T1, 5-lipoxygenase (Homo sapiens, UniProt P09917)", "T1 sequence (P09917 1-674)": "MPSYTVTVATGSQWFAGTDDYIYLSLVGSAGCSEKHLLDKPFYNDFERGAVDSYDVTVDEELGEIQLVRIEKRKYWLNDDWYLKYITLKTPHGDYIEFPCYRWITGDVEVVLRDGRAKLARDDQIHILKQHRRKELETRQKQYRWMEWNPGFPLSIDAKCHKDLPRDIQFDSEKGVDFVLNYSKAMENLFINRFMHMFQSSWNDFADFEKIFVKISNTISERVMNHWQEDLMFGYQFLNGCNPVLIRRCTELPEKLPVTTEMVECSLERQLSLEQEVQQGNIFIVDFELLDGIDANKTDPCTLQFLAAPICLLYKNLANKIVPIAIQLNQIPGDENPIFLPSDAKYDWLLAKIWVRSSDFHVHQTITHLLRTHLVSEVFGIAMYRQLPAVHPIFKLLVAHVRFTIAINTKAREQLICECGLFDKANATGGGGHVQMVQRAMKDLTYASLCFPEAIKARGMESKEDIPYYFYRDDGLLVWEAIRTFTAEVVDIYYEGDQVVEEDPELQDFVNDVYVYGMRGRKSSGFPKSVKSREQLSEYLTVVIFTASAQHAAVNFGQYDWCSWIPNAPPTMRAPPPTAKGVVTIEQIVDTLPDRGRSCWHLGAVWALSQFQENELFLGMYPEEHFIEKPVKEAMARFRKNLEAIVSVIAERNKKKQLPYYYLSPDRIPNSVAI"}, "COX-2": {"biological_target": "T2, COX-2 (Homo sapiens, UniProt P35354)", "T2 sequence (P35354 18-604)": "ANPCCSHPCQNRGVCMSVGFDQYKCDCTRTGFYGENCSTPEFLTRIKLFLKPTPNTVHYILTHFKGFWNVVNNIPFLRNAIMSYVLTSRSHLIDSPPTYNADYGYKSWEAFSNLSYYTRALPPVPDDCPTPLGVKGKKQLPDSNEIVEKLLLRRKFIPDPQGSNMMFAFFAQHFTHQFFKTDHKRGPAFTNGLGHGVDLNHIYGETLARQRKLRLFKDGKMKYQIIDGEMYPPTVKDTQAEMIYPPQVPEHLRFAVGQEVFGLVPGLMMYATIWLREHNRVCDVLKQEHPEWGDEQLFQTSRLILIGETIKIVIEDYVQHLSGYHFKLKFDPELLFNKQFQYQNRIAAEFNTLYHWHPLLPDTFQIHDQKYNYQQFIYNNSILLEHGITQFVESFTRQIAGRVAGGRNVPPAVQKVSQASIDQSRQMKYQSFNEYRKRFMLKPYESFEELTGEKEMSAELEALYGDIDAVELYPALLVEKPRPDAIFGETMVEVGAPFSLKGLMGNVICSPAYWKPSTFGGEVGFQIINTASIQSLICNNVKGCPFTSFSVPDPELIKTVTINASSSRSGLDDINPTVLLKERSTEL"}, "COX-1": {"biological_target": "COX-1 (Homo sapiens, UniProt P23219)", "sequence (P23219 24-599)": "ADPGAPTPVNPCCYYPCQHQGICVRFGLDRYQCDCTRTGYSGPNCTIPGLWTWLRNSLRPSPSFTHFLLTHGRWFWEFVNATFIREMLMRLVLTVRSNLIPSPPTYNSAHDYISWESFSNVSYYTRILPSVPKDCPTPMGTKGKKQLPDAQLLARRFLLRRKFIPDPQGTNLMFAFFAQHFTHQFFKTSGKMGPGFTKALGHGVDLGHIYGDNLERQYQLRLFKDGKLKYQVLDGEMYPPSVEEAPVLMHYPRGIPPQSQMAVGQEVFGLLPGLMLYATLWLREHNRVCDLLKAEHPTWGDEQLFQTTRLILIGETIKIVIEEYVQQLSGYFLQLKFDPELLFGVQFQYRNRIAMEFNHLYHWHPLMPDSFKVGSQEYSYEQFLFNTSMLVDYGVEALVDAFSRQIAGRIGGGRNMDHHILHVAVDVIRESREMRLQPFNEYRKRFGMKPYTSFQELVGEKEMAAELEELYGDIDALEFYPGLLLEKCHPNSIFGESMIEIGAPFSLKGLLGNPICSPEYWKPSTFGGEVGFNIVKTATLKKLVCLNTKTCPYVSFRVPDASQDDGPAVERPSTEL"}}}
{"molecule": "C=CCc1ccc(O)c(OC)c1", "note": "[Eugenol]", "values": [{"measurement": "5-lipoxygenase inhibition", "setting": "5-lipoxygenase", "value": "5-lipoxygenase inhibitor"}]}
{"molecule": "O=C(O)c1ccccc1O", "note": "[salicylic acid]", "values": [{"measurement": "COX-2 inhibition", "setting": "COX-2", "value": "COX-2 inhibitor"}]}
{"molecule": "COc1ccc2cc3[n+](cc2c1OC)CCc1cc2c(cc1-3)OCO2", "note": "[Berberine]", "values": [{"measurement": "COX-1 inhibition", "setting": "COX-1", "value": "without inhibiting COX-1 activity"}, {"measurement": "COX-2 inhibition", "setting": "COX-2", "value": "inhibit COX-2"}]}
{"molecule": "shogaols", "values": [{"measurement": "cyclooxygenase inhibition", "setting": "cyclooxygenase", "value": "inhibit cyclooxygenase"}]}
{"molecule": "gingerols", "values": [{"measurement": "cyclooxygenase inhibition", "setting": "cyclooxygenase", "value": "inhibit cyclooxygenase"}]}
{"molecule": "C[C@H]1[C@H](C)CC[C@]2(C(=O)O)CC[C@]3(C)C(=CC[C@@H]4[C@@]5(C)CC[C@H](O)C(C)(C)[C@@H]5CC[C@]43C)[C@H]12", "note": "[Ursolic acid]", "values": [{"measurement": "COX-2 inhibition", "setting": "COX-2", "value": "significant COX-2 inhibitory effect"}]}
{"molecule": "Oc1cc(O)c2c(c1)O[C@H](c1ccc(O)c(O)c1)[C@@H](O)C2", "note": "[(+)-catechin]", "values": [{"measurement": "COX-1 inhibition", "setting": "COX-1", "value": "COX-1 and COX-2 inhibitors"}, {"measurement": "COX-2 inhibition", "setting": "COX-2", "value": "COX-1 and COX-2 inhibitors"}]}
